Data as given in US10286000B2, “Retinoid X receptor-gamma agonists and retinoid X receptor-alpha antagonists for treatment of cancer” (St. Jude Children's Research Hospital, Inc., priority 2013, dated 2019).

What was measured:
Assay type in all cases: cell-based, human
[1] = system: MMP-1, 7, 10, 12, and 13 in CAL27 cells; assay: RT-qPCR of MMP mRNA; details: 3 days
Description: Data were normalized to GAPDH mRNA levels and presented as fold change relative to the mRNA expression in DMSO treated cells (n=3). * P<0.005, ** P<0.001.

[2] = system: NKG2DL (MICA-B, ULBP1-3) surface expression; assay: flow cytometry of NKG2DL cell surface expression in cancer cell lines
Protocol: Data are representative of five independent experiments. […] Controls were stained with APC-conjugated anti-human Fc antibody alone without preincubation with NKG2D-Fc. Data are representative of three independent experiments. […] Results are representative of two independent experiments. […] (E) NKG2DL mRNA expression in the colon cancer cell lines was analyzed by qRT-PCR analysis. Data are normalized to GAPDH mRNA levels and are presented as fold-change relative to the expression in DMSO-treated cells (n=5). (F) Lentiviral-based luciferase reporter construct containing the putative ULBP2 promoter (−2415 to 0 bp from the transcription start site: 73 bp upstream of ATG) was transduced into the colon cancer cell lines. Positively transduced cells were selected by puromycin treatment (2 μg/ml) for 2 weeks. […] Data shown are expressed as fold-change relative to the luciferase activity observed in DMSO-treated cells (n=3). * P<0.05, ** P<0.01.
Cell lines were stained with allophycocyanin-conjugated anti-MICA, anti-MICB, or anti-ULBP2 antibodies for 20 min at 4° C. For ULBP1 and ULBP3 staining, cells were first incubated with anti-ULBP1 and anti-ULBP3 antibodies and then with allophycocyanin-conjugated goat anti-mouse IgG antibody. To analyze total NKG2DL cell surface expression, cells were first incubated with human NKG2D-Fc for 20 min at 4° C. and then with allophycocyanin-conjugated mouse anti-human IgG (Fc) antibody. Cells were washed and analyzed on a C6 flow cytometer (Accuri). Data were analyzed using FlowJo software (TreeStar).

[3] = system: ULBP2 in MR-knockdown 293T cells; assay: ULBP2 surface expression in MR-knockdown 293T cells
Protocol: (A) MR mRNA expression was determined by qRT-PCR in various cell lines (n=3). (B) MR protein expression was determined by Western blot analysis. Data shown are representative of two independent experiments. (C) MR-knockdown 293T cells were generated by lentiviral transduction with an shRNA vector (pLKO.1) targeting MR. The relative mRNA expression of MR was analyzed by qRT-PCR (n=3). […] Data shown are representative of two independent experiments. * P<0.0001.

[4] = system: Chk1 (Ser-317 phosphorylation); assay: Phospho-Chk1 ELISA; details: HCT116, 0 h to 24 h
Protocol: Ser-317 phosphorylation of Chk1 was determined by using the PathScan phosphor-Chk1 (Ser317) Sandwich ELISA kit (Cell Signaling). Data were normalized to the total Chk1 levels obtained from an ELISA with anti-Chk1 (total) used as the detection antibody.

[5] = system: ATM/ATR checkpoint pathway in HCT116 cells; assay: Western blot of ATM/ATR checkpoint pathway
Protocol: Total cell lysates were collected at various time points for Western blot analysis to detect (A) ATM (Ser1981) and ATR (Ser428) phosphorylation and (B) ULBP2 expression. Data shown are representative of three independent experiments. […] Total cell lysates were prepared at various time points (with the same total protein concentration as determined by BCA protein assay) (0 h to 24 h) for phospho-Chk1 by ELISA. Data were expressed as fold change relative to the degree of Chk1 phosphorylation at 0 h (n=3). […] Data are representative of three independent experiments. […] Data are representative of three independent experiments. […] Data shown are representative of three independent experiments. (G) The knockdown efficiencies of various siRNAs in HCT116 cells were evaluated by Western blot analysis. Results are representative of three independent experiments. […] Data shown are representative of three independent experiments. * P<0.05, ** P<0.01, *** P<0.001.

TIMP2 and TIMP3 = assay: qRT-PCR of TIMP2 and TIMP3 mRNA; details: CAL27 and all the colon cancer cell lines, 56 μM 3 days
Protocol: The number of cells that invaded the ECM was determined after 24 h. Data are expressed as percentage change in tumor invasion relative to that of DMSO-treated cells (n=3). (D) Wound healing by DMSO- and SPIR-treated HCT116, HT29, and CAL27 cells was compared. Data are calculated as the percentage change in distance of migration relative to that of DMSO-treated cells (n=3). […] Tumor xenografts and lung metastases were detected by bioluminescence imaging on day 25. Data are shown as the average total flux (photons/second)±standard deviation (n=8). (F) The lung metastases (arrows) were confirmed by examining lung tissue sections. * P≤0.05, ** P<0.01, *** P<0.005, **** P<0.0001.
For qRT-PCR, total RNA was extracted from untreated or drug-treated tumor cells by using the RNA Clean & Concentrator (Zymo Research). All cDNA was generated by using the SuperScript VILO cDNA Synthesis kit (Life Technologies) and diluted 10-fold for analysis using the 7900HT Fast Real-time PCR System (Applied Biosystems). The data were calculated as the CT of target genes normalized to the CT of GAPDH of each sample. Primer sequences of the target genes were: MICA-F: 5′-[…]-3′, (SEQ ID NO: 14) MICA-R: 5′-[…]-[…]-3′, (SEQ ID NO: 15) MICB-F: 5′-[…]-3′, (SEQ ID NO: 16) MICB-R:5′-CCCTC-[…]-3′, (SEQ ID NO: 17), ULBP1-F:5′-[…]-3′, (SEQ ID NO: 18), ULBP1-R:5′-[…]-3′, (SEQ ID NO: 19), ULBP2-F:5′-[…]-3′, (SEQ ID NO: 20), ULBP2-R:5′-[…]-3′, (SEQ ID NO: 21), ULBP3-F:5′-[…]-TTCG-3′, (SEQ ID NO: 22), ULBP3-R:[…]-3′, (SEQ ID NO: 23), TIMP2-F:5′-[…]-[…]-3′, (SEQ ID NO: 24), TIMP2-R:[…]-3′, (SEQ ID NO: 25), TIMP3-F:5′-[…]-3′, (SEQ ID NO: 26), TIMP3-R:5′-[…]-[…]-3′ (SEQ ID NO: 27), GAPDH-F: 5′-[…]3′ (SEQ ID NO: 28), GAPDH-R: 5′-G-[…]-3′ (SEQ ID NO: 29). […] Differentially expressed transcripts were analyzed by ANOVA on Spotfire program.

CC(=O)S[C@@H]1CC2=CC(=O)CC[C@]2(C)[C@H]2CC[C@@]3(C)[C@@H](CC[C@@]34CCC(=O)O4)[C@H]12 [SPIR, spironolactone]
expression of Matrix Metalloproteinases (MMP-1, MMP-7, MMP-10, MMP-12, MMP-13) [1]: downregulates expression
ULBP2 expression ([2]; HCT116, HT29, SW480, HCT15, SPIR 56 μM, 3 days, dose-dependent): significantly increased
expression of other NK cell ligands (CD112, CD155, Fas, HLAs) ([2]; HCT116 cells, 56 μM, 3 days): no increase in expression
ULBP1 expression ([2]; SW480 and HCT15 cells): selective increase
MICA/B and ULBP3 expression ([2]; all SPIR-treated cells): enhancement
total NKG2DL expression by soluble NKG2D-Fc staining ([2]; colon cancer cell lines): Consistent NKG2DL upregulation
viability of the cells ([2]; colon cancer cell lines, SPIR treatment): without affecting the viability of the cells
upregulation of ULBP2 upon SPIR treatment with shRNA knockdown of MR [3]: did not affect the upregulation of ULBP2
Ser-317 phosphorylation of Chk1 (P-Chk1) [4]: time-dependent increase
ATM and ATR phosphorylation ([5]; HCT116, 56 μM, time-dependent): induces ATM and ATR phosphorylation
phosphorylated Chk2 and H2A.X ([5]; HCT116, 24 h): an increase was also detected
mRNA expression of TIMP2 and TIMP3 (TIMP2 and TIMP3): significantly upregulated
